Literature values as cited in patent US9782610B2, “Nontoxic, non-endocrine disrupting, cytoprotective, UV-radiation resistant sunblock compositions” (3rd Rock Sunblock, Inc., priority 2007, dated 2017).

Assays:
[1] = system: cancer cells
[2] = system: estrogenic activity; settings: uterine wet weight, cell height, cell proliferation assays

| SMILES | activity in cells / cancer cell growth [1] | estrogenicity [2] |
| --- | --- | --- |
| CCCCC(CC)COC(=O)c1ccc(N(C)C)cc1 (stereo not drawn) [octyl-dimethyl-PABA] | made cancer cells grow more rapidly |  |
| COc1ccc(C(=O)c2ccccc2)c(O)c1 [Benzophenone-3] | made cancer cells grow more rapidly | highly estrogenic |
| Cc1ccc(C=C2C(=O)C3(C)CCC2C3(C)C)cc1 (stereo not drawn) [Example 4-MBC, 3-(4-methylbenxylidene) camphor] | made cancer cells grow more rapidly | highly estrogenic |
| CC1CC(OC(=O)c2ccccc2O)CC(C)(C)C1 (stereo not drawn) [homosalate] | made cancer cells grow more rapidly |  |
